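Exposure lasted 48 hours, with cells grown in 96-well plates and compounds tested at five concentrations. At the GI50, growth is halved.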 Active and inactive are the calls of the source. Cut-off read from the data, not from the text of the source: active = GI50 up to about 1.1 µM and inactive = higher.
What was measured:
Assay in all cases: DTP human tumour cell line panel, 48 h
HCT-116 = tested on: HCT-116
IGROV-1 = tested on: IGROV-1
NCI-H226 = tested on: NCI-H226
OVCAR-5 = tested on: OVCAR-5
OVCAR-8 = tested on: OVCAR-8
OVCAR-4 = tested on: OVCAR-4
MOLT-4 = tested on: MOLT-4
NCI-H460 = tested on: NCI-H460
UACC-257 = tested on: UACC-257
EKVX = tested on: EKVX
SF-268 = tested on: SF-268
ACHN = tested on: ACHN
HOP-62 = tested on: HOP-62
SN12C = tested on: SN12C
A549 = tested on: A549
UACC-62 = tested on: UACC-62
SNB-75 = tested on: SNB-75
RPMI-8226 = tested on: RPMI-8226
MCF7 = tested on: MCF7
NCI/ADR-RES = tested on: NCI/ADR-RES

Compound | GI50 (HCT-116) | GI50 (IGROV-1) | GI50 (NCI-H226) | GI50 (OVCAR-5) | GI50 (OVCAR-8) | GI50 (OVCAR-4) | GI50 (MOLT-4) | GI50 (NCI-H460) | GI50 (UACC-257) | GI50 (EKVX) | GI50 (SF-268) | GI50 (ACHN) | GI50 (HOP-62) | GI50 (SN12C) | GI50 (A549) | GI50 (UACC-62) | GI50 (SNB-75) | GI50 (RPMI-8226) | GI50 (MCF7) | GI50 (NCI/ADR-RES)
Cc1cn(C2CC(O)C(CO)C2C)c(=O)[nH]c1=O (centres undefined) | > 100 µM (inactive) | > 100 µM (inactive) | > 100 µM (inactive) | > 100 µM (inactive) | > 100 µM (inactive) | > 100 µM (inactive) | > 100 µM (inactive) | > 100 µM (inactive) | > 100 µM (inactive) | > 100 µM (inactive) | > 100 µM (inactive) | > 100 µM (inactive) | > 100 µM (inactive) | > 100 µM (inactive) | > 100 µM (inactive) | > 100 µM (inactive) | > 100 µM (inactive) | – | – | –
O[C@@]12Cc3c([nH]c4ccccc34)[C@@H]3Oc4cccc5c4[C@@]31CCN(CC1CC1)[C@@H]2C5 | – | 24.9 µM (inactive) | – | 29 µM (inactive) | 15.1 µM (inactive) | 22.5 µM (inactive) | 19.6 µM (inactive) | 46.1 µM (inactive) | 24.9 µM (inactive) | 24.5 µM (inactive) | 19.5 µM (inactive) | 20.4 µM (inactive) | 31.8 µM (inactive) | 21.7 µM (inactive) | 27 µM (inactive) | 17.2 µM (inactive) | – | 19.4 µM (inactive) | 17.5 µM (inactive) | 33.4 µM (inactive)
c1ccc(CCn2cncn2)cc1 | > 100 µM (inactive) | > 100 µM (inactive) | > 100 µM (inactive) | > 100 µM (inactive) | – | > 100 µM (inactive) | > 100 µM (inactive) | > 100 µM (inactive) | > 100 µM (inactive) | > 100 µM (inactive) | > 100 µM (inactive) | > 100 µM (inactive) | > 100 µM (inactive) | > 100 µM (inactive) | > 100 µM (inactive) | > 100 µM (inactive) | > 100 µM (inactive) | – | – | –
CNS(=O)(=O)NN(C)S(=O)(=O)c1ccc(F)cc1 | > 100 µM (inactive) | > 100 µM (inactive) | > 100 µM (inactive) | > 100 µM (inactive) | > 100 µM (inactive) | > 100 µM (inactive) | > 100 µM (inactive) | 40.7 µM (inactive) | > 100 µM (inactive) | > 100 µM (inactive) | > 100 µM (inactive) | > 100 µM (inactive) | > 100 µM (inactive) | > 100 µM (inactive) | > 100 µM (inactive) | > 100 µM (inactive) | 47 µM (inactive) | > 100 µM (inactive) | – | –
CCSc1nc(N/N=C/c2cccs2)c2cnn(CO)c2n1 | 5.01 µM (inactive) | 2.61 µM (inactive) | 3.1 µM (inactive) | 13.4 µM (inactive) | 4.16 µM (inactive) | 23.6 µM (inactive) | – | 5.11 µM (inactive) | 11.6 µM (inactive) | 9.08 µM (inactive) | 6.22 µM (inactive) | 6.07 µM (inactive) | 4.25 µM (inactive) | 6.44 µM (inactive) | 7 µM (inactive) | 10.4 µM (inactive) | 14.2 µM (inactive) | – | 3.59 µM (inactive) | 3.91 µM (inactive)
CCCCCCCCCCCCCCCCCc1cc(Cl)nc(Cl)n1 | – | > 100 µM (inactive) | > 100 µM (inactive) | > 100 µM (inactive) | > 100 µM (inactive) | > 100 µM (inactive) | > 100 µM (inactive) | > 100 µM (inactive) | > 100 µM (inactive) | > 100 µM (inactive) | > 100 µM (inactive) | > 100 µM (inactive) | > 100 µM (inactive) | > 100 µM (inactive) | > 100 µM (inactive) | > 100 µM (inactive) | > 100 µM (inactive) | 43.7 µM (inactive) | 36.6 µM (inactive) | > 100 µM (inactive)
N#Cc1ccc(-c2nc(C#N)c(N)o2)cc1 | > 10 µM (inactive) | > 10 µM (inactive) | > 10 µM (inactive) | – | > 10 µM (inactive) | > 10 µM (inactive) | > 10 µM (inactive) | > 10 µM (inactive) | > 10 µM (inactive) | > 10 µM (inactive) | > 10 µM (inactive) | > 10 µM (inactive) | > 10 µM (inactive) | > 10 µM (inactive) | > 10 µM (inactive) | > 10 µM (inactive) | > 10 µM (inactive) | > 10 µM (inactive) | > 10 µM (inactive) | > 10 µM (inactive)
O=C(Nc1cccc(O)c1)C(=O)C(C(=O)c1ccccc1F)C1OC(=O)c2ccccc21 (centres undefined) | 18 µM (inactive) | 38.7 µM (inactive) | 17.2 µM (inactive) | 57 µM (inactive) | 14.6 µM (inactive) | 23.9 µM (inactive) | 28.6 µM (inactive) | 29.4 µM (inactive) | 84.5 µM (inactive) | 34 µM (inactive) | 19.6 µM (inactive) | 37.7 µM (inactive) | 29.9 µM (inactive) | 19.4 µM (inactive) | 29.4 µM (inactive) | 16.9 µM (inactive) | 17.5 µM (inactive) | 23.4 µM (inactive) | – | –
CNC1=C(C)C(=O)C2=C(C1=O)C(COC(N)=O)C1(OC)C3NC3CN21 (centres undefined) | 0.209 µM (active) | 3.53 µM (inactive) | 0.543 µM (active) | 4.91 µM (inactive) | 0.644 µM (active) | 2.95 µM (inactive) | 3.68 µM (inactive) | < 0.01 µM (active) | 0.951 µM (active) | 22 µM (inactive) | 0.783 µM (active) | 0.16 µM (active) | 0.092 µM (active) | – | 0.106 µM (active) | 0.221 µM (active) | 0.141 µM (active) | 3.13 µM (inactive) | 0.107 µM (active) | –
Oc1ccc2ccccc2c1/N=N/c1cccc2ccccc12 | > 100 µM (inactive) | 49.9 µM (inactive) | > 100 µM (inactive) | > 100 µM (inactive) | 44.1 µM (inactive) | > 100 µM (inactive) | > 100 µM (inactive) | > 100 µM (inactive) | > 100 µM (inactive) | 84.9 µM (inactive) | 55.5 µM (inactive) | > 100 µM (inactive) | 48.5 µM (inactive) | > 100 µM (inactive) | > 100 µM (inactive) | > 100 µM (inactive) | 23.6 µM (inactive) | – | > 100 µM (inactive) | > 100 µM (inactive)
CC1(C)O[C@@H](C[C@]2(C#N)C[C@H](CCl)OC(C)(C)O2)C[C@@H](C#N)O1 | > 100 µM (inactive) | > 100 µM (inactive) | > 100 µM (inactive) | > 100 µM (inactive) | > 100 µM (inactive) | > 100 µM (inactive) | > 100 µM (inactive) | > 100 µM (inactive) | > 100 µM (inactive) | > 100 µM (inactive) | > 100 µM (inactive) | > 100 µM (inactive) | > 100 µM (inactive) | > 100 µM (inactive) | > 100 µM (inactive) | > 100 µM (inactive) | > 100 µM (inactive) | > 100 µM (inactive) | – | –
O=C1Sc2ccccc2/C1=N/Nc1ccccc1[N+](=O)[O-] | > 100 µM (inactive) | > 100 µM (inactive) | > 100 µM (inactive) | > 100 µM (inactive) | 56.4 µM (inactive) | 36.1 µM (inactive) | > 100 µM (inactive) | > 100 µM (inactive) | > 100 µM (inactive) | > 100 µM (inactive) | 36.6 µM (inactive) | 93.1 µM (inactive) | > 100 µM (inactive) | – | > 100 µM (inactive) | > 100 µM (inactive) | 0.281 µM (active) | > 100 µM (inactive) | 17 µM (inactive) | –
C=C1C[C@@H]2C[C@@H](C)CC(O)[C@]2(CCCN)C1O (some centres undefined) | > 100 µM (inactive) | > 100 µM (inactive) | > 100 µM (inactive) | > 100 µM (inactive) | > 100 µM (inactive) | > 100 µM (inactive) | > 100 µM (inactive) | > 100 µM (inactive) | > 100 µM (inactive) | > 100 µM (inactive) | > 100 µM (inactive) | > 100 µM (inactive) | > 100 µM (inactive) | > 100 µM (inactive) | > 100 µM (inactive) | > 100 µM (inactive) | > 100 µM (inactive) | > 100 µM (inactive) | – | –
O=C1CNc2cc(N3CCCCC3)ccc2N1 | – | 13.9 µM (inactive) | 16.3 µM (inactive) | > 100 µM (inactive) | > 100 µM (inactive) | > 100 µM (inactive) | > 100 µM (inactive) | > 100 µM (inactive) | > 100 µM (inactive) | 21.2 µM (inactive) | – | > 100 µM (inactive) | > 100 µM (inactive) | > 100 µM (inactive) | > 100 µM (inactive) | 25.4 µM (inactive) | 66.2 µM (inactive) | > 100 µM (inactive) | > 100 µM (inactive) | > 100 µM (inactive)
C=C(C)C(=O)O[C@H]1CC2=C[C@@H](C[C@@]3(C)O[C@@H]3[C@H]3OC(=O)C(=C)[C@@H]31)OC2=O [ELEPHANTOPIN] | 1.16 µM (inactive) | 4.65 µM (inactive) | 10.2 µM (inactive) | 6.55 µM (inactive) | 0.505 µM (active) | 2.61 µM (inactive) | 0.412 µM (active) | 4.86 µM (inactive) | 1.85 µM (inactive) | 2.08 µM (inactive) | 0.818 µM (active) | – | 52.5 µM (inactive) | 4.03 µM (inactive) | 7.33 µM (inactive) | 3.5 µM (inactive) | 7.98 µM (inactive) | – | 1.14 µM (inactive) | 1.14 µM (inactive)
